Measurements as given in US20070092587A1, “Extract from plant of japanese parsley family and process for producing the same” (priority 2004, published 2007).

Test system: mature adipocytes (3T3-L1 cells)
Experiment: Enhancing action on glucose uptake (2-deoxyglucose uptake) into mature adipocytes
Assay type: cell-based
Conditions: isolated compounds at final 3-30 μM; insulin 1 μg/mL positive control; compared to negative control
Protocol: The induction of differentiation into mature adipocytes was carried out by partially modifying the method of Rubin C. S. et al. 3T3-L1 cells were suspended in a 10% fetal bovine serum-containing Dulbecco's modified Eagle's medium containing 200 μM ascorbic acid so as to have a density of 4×10^3 cells/mL, and the suspension was put in each well of a 12-well microtiter plate in an amount of 2 mL per well. The cells were cultured at 37° C. for 7 days in the presence of 5% carbon dioxide gas. On the seventh day, the medium was exchanged with 2 mL of a 10% fetal bovine serum-containing Dulbecco's modified Eagle's medium containing 200 μM ascorbic acid, 0.25 μM dexamethasone, 10 μg/mL insulin and 0.5 mM 3-isobutyl-1-methylxanthine (manufactured by Nacalai Tesque, Inc., 19624-44). After 45 hours, the medium was exchanged with 2 mL of a 10% fetal bovine serum-containing Dulbecco's modified Eagle's medium containing 200 μM ascorbic acid and 5 μg/mL insulin. The medium was exchanged on after 2 days and 4 days, and the cells were cultured for 7 days, to give mature adipocytes.
As the evaluation of enhancing action on glucose uptake, and also as the evaluation of insulin-mimetic action, the amount of 2-deoxyglucose uptake into mature adipocytes stimulated with the sample ([…]) in the adipocytes was determined.
After the termination of the culture, the medium was removed, and the cells were washed twice with a 0.1% (w/v) bovine serum albumin (manufactured by Sigma, A8022)-containing Dulbecco's modified Eagle's medium. Thereafter, 1 mL of the […] ethanol solution at a final concentration of 0.1%, 0.067%, or 0.022%, […] solution at a final concentration of 0.2%, 0.067%, or 0.022%, […] ethanol solution or the dimethyl sulfoxide solution of the extract from the root portion of Angelica keiskei koidz. with the 100% ethanol so as to have a final concentration of 0.067% or 0.022%, each extract being prepared in Example 4, was put to each well. The cells were cultured overnight at 37° C. in the presence of 5% carbon dioxide gas. Here, a group without addition of the sample was set as a negative control. After the overnight culture, the cells were washed twice with a HEPES buffered saline (140 mM NaCl, 5 mM KCl, 2.5 mM MgSO4, 1 mM CaCl2, 20 mM HEPES-Na (pH 7.4)), and 0.9 mL of the […] ethanol solution at a final concentration of 0.1%, 0.067%, or 0.022%, […] solution at a final concentration of 0.2%, 0.067%, or 0.022%, […] ethanol solution or the dimethyl sulfoxide solution of the extract from the root portion of Angelica keiskei koidz. with the 100% ethanol so as to have a final concentration of 0.067% or 0.022%, was added thereto. The cells were cultured at 37° C. for 75 minutes. At the point when 45 minutes passed, there was set in a well without addition of the sample a group with addition of insulin so as to have a final concentration of 1 μg/mL as a positive control. Thereafter, 100 μL of a HEPES buffered saline containing 0.5 μCi/mL 2-deoxy-[1,2-^3H(N)]-glucose (manufactured by PerkinElmer Life Sciences Inc., NET549A) and 1 mM 2-deoxyglucose (manufactured by Nacalai Tesque, Inc., 10722-11) was added thereto, and the cells were further cultured at 37° C. for 10 minutes. […] The radioactivity was determined with a liquid scintillation counter LS6500 (manufactured by Beckmann) using 25 μl of the supernatant with Ultima Gold (manufactured by PerkinElmer Life Sciences Inc., 6013329) as a scintillation cocktail. […]

| Compound | enhancement of 2-deoxy-[1,2-3H(N)]-glucose uptake |
| --- | --- |
| CC(C)=CCc1c(O)ccc(C(=O)/C=C/c2ccc(O)cc2)c1O [Isobavachalcone, isobavachalcone] | enhancement of 2-deoxy-[1,2-^3H(N)]-glucose uptake was found |
| xanthoangelol H | enhancement of 2-deoxy-[1,2-^3H(N)]-glucose uptake was found |
